Experiments:
[1] = Photostability evaluation (discoloration observed with naked eyes); type: physicochemical
Method: It is determined to be suitable only when the white to yellowish off-white powder form is maintained as a solid property.

[2] = Long-term storage stability (25±2°C, 60±5% RH); type: physicochemical; details: for Moisture: criteria 1.0% or less; for Purity: criteria 99.0% or more; for Property: criteria: White to yellowish off-white powder
Method: (§1) An X-ray powder diffraction pattern was obtained through a solid phase detector over a range of 2° to 40° of a diffraction angle (2θ) with a 0.02° step size by using D8 Focus (Bruker ASX). The moisture content of the obtained sample was measured with an 870KF Titrino Plus (Metrohm) Karl-Fischer moisture meter. Immediately after preparing azetidin-1-yl{8-[(2,6-dimethylbenzyl)amino]-2,3-dimethylimidazo[1,2-a]pyridin-6-yl}methanone citrate according to Example 4(1) of the present invention, properties were confirmed with naked eyes, and the moisture content, purity, and XRD were measured, respectively. Subsequently, the same was primarily sealed in a polyethylene bag and then secondarily sealed in an aluminum bag, and then the properties were confirmed with naked eyes and the moisture content, purity, and XRD were also measured at 12, 24 and 36 months after being stored under the condition of 25±2°C and 60±5% RH.

[3] = Thermal and moisture stability under accelerated conditions (40±2°C, 75±5% RH); type: physicochemical; details: for Moisture: criteria 1.0% or less; for Purity: criteria 99.0% or more; for Property: criteria: White to yellowish off-white powder
Method: as §1, with “at one” for “at 12, 24”, “and six” for “and 36”, “under an accelerated” for “under the”, “of 40±2°C” for “of 25±2°C”, “and 75±5%” for “and 60±5%”

[4] = Bioavailability evaluation (pharmacokinetics after oral capsule administration); type: in vivo; details: fasted male beagle dogs, oral capsules, 10 mg/kg; for AUC(0-inf) / AUC(0-t) / Cmax / Tmax: dog, plasma
Method: Bioavailability was evaluated with regard to azetidin-1-yl{8-[(2,6-dimethylbenzyl)amino]-2,3-dimethylimidazo[1,2-a]pyridin-6-yl}methanone citrate according to Example 4(1) of the present invention and azetidin-1-yl{8-[(2,6-dimethylbenzyl)amino]-2,3-dimethylimidazo[1,2-a]pyridin-6-yl}methanone obtained according to Preparation Example 1 as an comparative example. Specific pharmacokinetic experiments and evaluation methods are as follows.
Fasted male beagle dogs were orally administered with capsules at a dose of 10 mg/kg, and bled at 0.08, 0.25, 0.5, 1, 3, 5, 8, and 24 hours after administration. Blood collected in an amount of 3 ml each from the jugular vein was centrifuged to separate plasma, and stored frozen in a cryogenic freezer before analysis.
Plasma pretreatment was performed by a protein precipitation method. 300 ul of acetonitrile containing an internal standard (200 ng/ml of carbamazepine) was added to 100 ul of a plasma sample and mixed. After sufficiently mixing, the resulting mixture was centrifuged at 12,000 rpm for 10 minutes, after which the supernatant was transferred to an assay vial and injected into a LC-MS/MS to analyze a blood concentration of the compound.
Parameters of time to maximum plasma concentration (Tmax), maximum plasma concentration (Cmax), and area under the plasma-concentration time curve (AUC0-t, AUC0-inf) were obtained using PK Solution.

[5] = Short-term storage stability (heat/moisture), purity by HPLC; type: physicochemical
Method: Purity of azetidin-1-yl{8-[(2,6-dimethylbenzyl)amino]-2,3-dimethylimidazo[1,2-a]pyridin-6-yl}methanone citrate according to Example 4(1) of the present invention was measured, and then the purity was measured after being left at 60°C for four days. Purity measurements were performed by HPLC. In addition, with regard to azetidin-1-yl{8-[(2,6-dimethylbenzyl)amino]-2,3-dimethylimidazo[1,2-a]pyridin-6-yl}methanone citrate according to Example 4(1) of the present invention, the purity was measured after being left for two days under the condition of 75 to 90% humidity (RH).

[6] = Immediately after preparation (Initial value)

## Cc1cccc(C)c1CNc1cc(C(=O)N2CCC2)cn2c(C)c(C)nc12.O=C(O)CC(O)(CC(=O)O)C(=O)O [Citrate of Compound I, azetidin-1-yl{8-[(2,6-dimethylbenzyl)amino]-2,3-dimethylimidazo[1,2-a]pyridin-6-yl}methanone citrate]
[1]; Initial value
  color: White
[1]; UV 200 watt (35 W), 25°C, humidity 60%
  color: Off-white
[1]; Visible 1200k lux (35k lux), 25°C, humidity 60%
  color: Slightly off-white
[2]; 12 months, 25±2°C, 60±5% RH
  XRD (Comparison with initial value): Same
  Moisture: 0.52%
  Purity: 99.96%
  Property: Suitable
[2]; 24 months, 25±2°C, 60±5% RH
  XRD (Comparison with initial value): Same
  Moisture: 0.45%
  Purity: 99.97%
  Property: Suitable
[2]; 36 months, 25±2°C, 60±5% RH
  XRD (Comparison with initial value): Same
  Moisture: 0.60%
  Purity: 99.96%
  Property: Suitable
[2]; [6]
  XRD (Comparison with initial value): Same
  Moisture: 0.74%
  Purity: 99.96%
  Property: Suitable
[3]; 1 month, 40±2°C, 75±5% RH
  XRD (Comparison with initial value): Same
  Moisture: 0.75%
  Purity: 99.97%
  Property: Suitable
[3]; 6 months, 40±2°C, 75±5% RH
  XRD (Comparison with initial value): Same
  Moisture: 0.15%
  Purity: 99.96%
  Property: Suitable
[3]; [6]
  XRD (Comparison with initial value): Same
  Moisture: 0.74%
  Purity: 99.96%
  Property: Suitable
[4]
  AUC(0-inf): 15200 ng·h/mL
  AUC(0-t): 15000 ng·h/mL
  Cmax: 3030 ng/mL
  Tmax: 1 h
  AUC improvement relative to Comparative Example (compound I free base): five times or more
  Cmax increase relative to Comparative Example (compound I free base): ≥ 11 times
[5]; Humidity 75~90 %, Day 2
  Purity (%): 99.976%
[5]; Initial value
  Purity (%): 99.955%
[5]; Temperature 60°C, Day 4
  Purity (%): 99.974%

## Cc1cccc(C)c1CNc1cc(C(=O)N2CCC2)cn2c(C)c(C)nc12 [Compound I (free base), Azetidin-1-yl{8-[(2,6-dimethylbenzyl)amino]-2,3-dimethylimidazo[1,2-a]pyridin-6-yl}methanone]
[4]
  AUC(0-inf): 2820 ng·h/mL
  AUC(0-t): 2630 ng·h/mL
  Cmax: 262 ng/mL
  Tmax: 5 h

Source: patent EP4563577A1, “NOVEL SALT OF IMIDAZO[1,2-A]PYRIDINE COMPOUND, CRYSTALLINE FORM THEREOF, AND PREPARATION METHOD” (Jeil Pharmaceutical Co., Ltd., priority 2022, dated 2024)
